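Results reflect a 48-hour exposure of cells in 96-well plates to compound at five concentrations. TGI: total growth inhibition.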 Where only a bound is given, the exact number is not on record here.

What all share (assay): DTP human tumour cell line panel, 48 h
For test [1], the system named is BT-549 breast.
For test [2], the system named is DMS 273 small cell lung.
Test [3] relates to DU-145 prostate.
The test system of test [4] is HOP-18 NSCLC.
The test system of test [5] is HS 578T breast.
The subject of test [6] is KM20L2 colon.
Test [7] relates to LXFL 529 NSCLC.
For test [8], the system named is MCF7 breast.
Test [9] deals with MDA-MB-435.
Test [10] deals with NCI/ADR-RES ovarian.
Test [11] concerns PC-3 prostate.
Test [12] concerns T-47D breast.

`c1ccc(CN2CCc3[nH]c4ccccc4c3C2)cc1`: the TGI (usually the concentration at which net growth stops) in [1] was more than 100 µM; in [2], more than 100 µM; in test [3], 78.3 µM; in [4], more than 100 µM; in [5] it was 79.9 µM; in test [6], 26.3 µM. Moreover, the TGI in test [7] was 48.6 µM; in test [8], 31.9 µM; in test [9] it was 46.7 µM; in test [10], more than 63.3 µM; in [11], more than 100 µM; in test [12], 47.2 µM.

`CC[C@@]1(OC(=O)C(N)CCCCN)C(=O)OCc2c1cc1n(c2=O)Cc2cc3ccccc3nc2-1` (stereo partly specified): the TGI was 10.9 µM in test [1]; 0.366 µM in [2]; 0.25 µM in [3]; more than 23 µM in test [4]; more than 100 µM in [5]; 12.5 µM in test [6]. Besides, the TGI in [7] was 4.34 µM; in [9], 1.26 µM; in test [11], more than 100 µM; in [12], 0.935 µM.

As for `CN(C)CCC(/C=C/c1ccccc1)=N\Nc1ccc(Cl)c(Cl)c1`, the TGI amounted to 6.42 µM in test [2], 8.28 µM in [4], 4.54 µM in test [6] and 4.13 µM in [7].

The values above are taken from PubChem BioAssay (NCI).
